Patent US8673289B2, “Attenuated uracil auxotroph of an apicomplexan and use thereof” (priority 2007, dated 2014)

What was measured:
Assay type in all cases: cell-based, Toxoplasma gondii
[1] = system: T. gondii carrying a single allele of TK from pDHFRm2m3-TK-TS; assay: plaque formation in ganciclovir, TK-transfected parasites
Description: A modified hit and run mutagenesis was devised for knocking out the T. gondii gene encoding CPSII. First, a new plasmid vector was developed for positive and negative selection analogous to the plasmid described by Fox, et al. ((1999) Mol. Biochem. Parasitol. 98:93-103), except using the herpes simplex virus type I thymidine kinase (TK) gene instead of bacterial cytosine deaminase in the linker region of DHFR-TS. To create this plasmid two primers, a forward primer GGGAGATCTATGGCTTCGTACCCCGGCCATCAA (SEQ ID NO:10) and a reverse primer GGGGATCCTCAGTTAGCCTCCCCCATCTCCCG (SEQ ID NO:11) were used to PCR amplify, via standard conditions, the ganciclovir hypersensitive TK75 HSVTK allele (Black, et al. (1996) Proc. Natl Acad. Sci. USA 93:3525-3529). The forward primer contains a BglII site and the reverse primer a BamHI site. Following BamHI and BglII digestion of the ˜1130 bp PCR product, the TK allele was ligated into plasmid pDHFRm2m3-FLG-TS which was digested at the unique BamHI site in the FLAG epitope linker. The TK PCR primers were designed to join with pDHFRm2m3-FLG-TS to produce an in-frame insertion of TK between DHFR and TS in a plasmid called pDHFRm2m3-TK-TS, similar to previously described pDHFRm2m3-CD-TS plasmid (Fox, et al. (1999) supra). The trifunctional enzyme plasmid with TK was tested to confirm function of all three enzymes. […]

[2] = system: mutants cps1, cps2, cps3, cps4; assay: plaque formation in ganciclovir, cps mutants
cps1-1 and cps2-1 [3] = assay: drug sensitivity of cps1-1 and cps2-1 in replication and plaque assays; conditions: 10 μM
Description: It is believed that the single recombination into the CPSII locus only partially disrupted expression of CPSII activity in cps1 and cps2. […] Cps1 and cps2 were thus utilized as the parent strain background in which to select a more highly attenuated pyrimidine auxotroph mutant. Both the cps1 and cps2 mutants express a TK allele which was inserted into the CPSII locus. […] Then, approximately 1-2×10^5 cps1 or cps2 parasites was inoculated into a 25 cm^2 HFF flask and selected negatively in the presence of 10 μM ganciclovir plus 200 μM uracil. This is 20 times the dose of ganciclovir necessary to completely block plaque formation of these mutants. […] The parasites which were growing in ganciclovir plus uracil were subcloned in ganciclovir and uracil (same conditions) and individual clones, cps1-1 and cps2-1, were identified from each parent, respectively, for further analysis. The cps1-1 and cps2-1 subclones were first tested for their sensitivity to pyrimethamine. The theory of negative selective in only ganciclovir is that a mutant that disrupts expression of the TK allele should simultaneously acquire sensitivity to pyrimethamine due to loss of the expression of the fused trifunctional DHFR-TK-TS transgene(s) inserted into the CPSII locus of cps1 and cps2.

wild-type T. gondii = assay: labeling of parasites with [3H]pyrimidines (pyrimidine salvage); conditions: parasites grown in host cells
Procedure: (§1) Initial experiments primarily involved an enzymatic analysis of drug resistant mutants and the incorporation of various pyrimidine analogs into T. gondii RNA and DNA as an indication of pyrimidine salvage when parasites were grown in either normal host or mutant host cells. All biochemical communications between the parasite and host cells cross the vacuolar membrane which is now known to contain “pores” that permit the passage of nucleobases ranging in molecular mass from 112 daltons up to 244 daltons. The size of the pores is estimated to be approximately 1500 daltons. A T. gondii mutant resistant to 5-fluorodeoxyuridine (FUDR-1) had lost uracil phosphoribosyltransferase (UPRT), an enzyme which is absent in normal host cells (Pfefferkorn (1978) Expt. Parasitol. 44:26-35). […] FUDR-1 mutant parasites were not labeled with [^3H]deoxyuridine. […] FUDR-1 mutant parasites were not labeled with [^3H]uridine. […] FUDR-1 (UPRT knock-out) parasites were not labeled with [^3H]uracil.
Similarly, since uracil only labels the parasite, due to the parasite UPRT, which is absent in the host, the pyrimidine pools of the parasite are also unavailable to the host. Thus, there is no detectable pyrimidine traffic detected between the parasite and host.

FUDR-1 mutant parasites = assay: labeling of FUDR-1 (UPRT knock-out) parasites with [3H]pyrimidines
Procedure: as §1

tachyzoites = assay: uracil incorporation assay; conditions: [3H]uracil 25 μg/ml
Procedure: Experiments to evaluate the feasibility of constructing pyrimidine auxotrophs of T. gondii were performed. Pyrimidine auxotrophy relies on the ability to feed mutant parasites a pyrimidine nucleobase, such as uracil, in culture medium in amounts that will restore parasite growth to near normal levels. Experiments were therefore conducted to measure whether uracil incorporation into parasites in culture could account for normal replication and normal growth rates. In these experiments, biochemically saturating amounts of [^3H]uracil (25 μg/ml) were added to the growth medium and the quantitative incorporation of label into parasite RNA and DNA was determined over a four hour interval. It was calculated using known values that about 82% of the pyrimidines incorporated into parasite nucleic acids were derived from the uracil which was added to the growth medium as a supplement.
The uracil incorporation assay, results and calculation of uracil incorporation were carried out as follows. Parasites (2.09×10^7) were labeled for 4 hours in medium containing [^3H]uracil at 25 μg per ml or 0.223 μmole per ml, wherein the specific activity of uracil was 34.3 CPM per pmole (CPM=counts per minute). […] Based upon these parameters, it was concluded that 82% of incorporated pyrimidines originate from uracil when it is added to medium.

cps1 and cps2 mutants = assay: pyrimidine dependence of cps1 and cps2 replication and plaque formation; conditions: relatively low (thymine, thymidine: moderate) concentrations in medium
Description: However, all of these mutants are somewhat “leaky” in that there was not an absolute growth (replication) dependence on uracil addition to the growth medium for replication. Each of these mutants grows at a moderate (½ of normal) growth rate for the first 2 days following infection of a host cell producing vacuoles that contained 16 to 32 parasites by 3 days post infection. In contrast, RH parasites are lysed out of their primary vacuoles at this time (3 days, >64 parasites). However, the cps mutants slow after 3 days and many parasites never (about ⅓) break out of their primary vacuole. If the primary vacuole breaks, a few parasites can be detected at the site of infection but the infection site always involves a small zone of infection that never forms a visible plaque in a standard 7 day plaque assay. To quantitate growth of these mutants, HFF flasks were inoculated with […] or cps2 parasites (about a multiplicity of infection (MOI) of 1 parasite per 20 HFF cells). After 2 hours of attachment and invasion (all of these mutants have normal attachment and invasion phenotypes as scored by counting percent entered parasites into host cells as a function of time post-inoculation), different concentrations of different pyrimidine compound was added to parallel infected HFF flasks. As a function of time post pyrimidine addition (t=0 hour) the number of parasites per vacuole was scored for 50 vacuoles as described by Fox et al. ((1999) supra). The number of parasite doublings was calculated based on 1 parasite entering each primary vacuole. Thus, 1 doubling=2 parasites per vacuole, 3 doublings=8 parasites per vacuole, and 5 doublings=32 parasites per vacuole. The pyrimidine dependence of cps1 and cps2 replication (doublings of parasites in the vacuole) was plotted graphically. […] The response to thymine and thymidine was additionally informative about the cause of the growth defect in cps1 and cps2. […] This is believed to be caused by the putative defect in the cps1 and cps2 mutants which is a reduced “pool” size of UMP. If UMP pools (ultimately used for RNA and DNA synthesis) are lowered it follows that a resulting decrease in TMP pools is expected since UMP is the precursor of TMP in T. gondii and all other apicomplexan parasites which normally lack TK activity. However, since cps1 and cps2 now express a TK activity carried into the parasite by the p53KOX3-1R plasmid, exemplified by sensitivity of these mutants to ganciclovir (specific to HSV TK), feeding parasites either thymine or thymidine is expected to increase TMP pools. Thus, it appears that moderate levels of thymine or thymidine partially rescue growth of cps1 and cps2 by restoring TMP pools. […] Since the parasite has no mechanism to convert TMP back to UMP there is still a defect in the UMP pool in cps1 and cps2 even with added thymine or thymidine and rescue is never complete. The ability of cps1 and cps2 mutants to form plaques on HFF monolayers in the standard 7 day assay paralleled the pyrimidine dependence of parasite replication in vacuoles.
The cps1 and cps2 mutants were inoculated intraperitoneally (i.p.) into balb/c mice to measure parasite virulence compared to virulent RH parasites. Both mutant cps1 and cps2 had equal virulence as RH parasites in balb/c mice (Jackson Labs), killing all mice within 10 days of i.p. inoculation (group size was four mice per parasite strain). Only 100 parasites (˜50 PFU) of each parasite strain was needed to kill all mice in each group. This pattern of virulence can be understood by re-examining the pyrimidine dependence of cps1 and cps2 growth. Uridine is believed to be the pyrimidine responsible for virulence of cps1 and cps2 in mice. Only 5 μM uridine completely rescues normal plaque size of cps1 and cps2 in vitro. Plasma concentrations of uridine in mice are approximately 5 to 10 μM.

cps1-1 and cps2-1 [4] = assay: pyrimidine rescue of cps1-1 and cps2-1 replication and plaque formation
Procedure: No pyrimidine compound at less than 25 μM could rescue plaque formation of cps1-1 or cps2-1. […] Uridine was quite poor at rescue of plaque formation in cps1-1 and cps2-1.
A more detailed growth response to pyrimidine, measured as parasite replications (doublings) was performed for cps1-1 and cps2-1 and compared to the results previously obtained for […]. […] Uridine rescue was poor, with a slow restoration of growth at very high amounts, >400 μM. Deoxyuridine rescue was significant, but again, full growth rate was not restored at any concentration of deoxyuridine. Rescue with uracil was robust, but only in a limited range of concentration. Full restoration of growth rate in cps1-1 and cps2-1 was possible only with uracil added between 200 and 400 μM. […] This phenotype can only be observed in T. gondii pyrimidine auxotroph mutants, not in wild-type parasites with intact de novo pyrimidine synthesis pathways.
The pyrimidine growth dependence of mutant cps1-1 on the pyrimidine salvage pathway was further documented in thymidine interference experiments. Mutant cps1-1 plaques well in 250 μM uracil or deoxyuridine, but not in 1000 μM thymidine. Since thymidine at 1000 μM is known to inhibit approximately 90% of the parasite nucleoside phosphorylase activity specific for cleavage of deoxyuridine (Iltzsch, (1993) J. Euk. Micro. 40:24-28), growth of cps1-1 was tested in combinations of 1000 μM thymidine and 250 μM uracil or 250 μM deoxyuridine. All pyrimidine salvage in T. gondii must pass through uracil and UPRT conversion of uracil to UMP. In contrast, thymidine has no effect on UPRT activity. Thus, if growth of cps1-1 were dependent on deoxyuridine supplementation then replication in this condition may be inhibited by co-supplementing with 1000 μM thymidine. […] Thus, when cps1-1 is grown in deoxyuridine the parasite strictly requires nucleoside phosphorylase activity to cleave deoxyuridine for growth. […] Thus, cps1-1 and cps2-1 rely strictly on pyrimidine salvage enzymes for growth and further, the HFF host cell in vitro cannot supply sufficient pyrimidines for growth of cps1-1 or cps2-1. […] Such potential inhibitors can only be identified using a pyrimidine auxotroph such as provided in the instant invention.
To assess reversion, 10^6 to 10^7 cps1-1 or cps2-1 parasites were periodically inoculated into HFF flasks supplemented with 5 μM uridine. This concentration of uridine is sufficient to rescue the parent strains (cps1 and cps2) of cps1-1 and cps2-1.

RH parasite = assay: plaque formation of RH in very high uracil; conditions: 2000 or 4000 μM uracil

| SMILES | ganciclovir concentration in which parasites do not form plaques [1] | ganciclovir concentration at which ability to form plaques is lost [2] | sensitivity of cps1-1 and cps2-1 to ganciclovir (cps1-1 and cps2-1 [3]) | incorporation of [3H]-labeled pyrimidine into wild-type parasites (wild-type T. gondii) | labeling of FUDR-1 mutant parasites with [3H]pyrimidine (FUDR-1 mutant parasites) | actual incorporation (tachyzoites) | rescue of growth rate / replication of cps1 and cps2 (cps1 and cps2 mutants) | plaque formation of cps1-1 (cps1-1 and cps2-1 [4]; 250 μM supplement) | rescue of replication (doublings) of cps1-1 and cps2-1 (cps1-1 and cps2-1 [4]; 36-hour replication assay, HFF) | plaque formation of cps1-1, cps2-1, cps1 and cps2 (cps1-1 and cps2-1 [4]; 2000 or 4000 μM uracil) | uracil concentration above which growth rate is reduced significantly (cps1-1 and cps2-1 [4]; cps1-1, cps2-1) | rescue of plaque formation of cps1-1 and cps2-1 (cps1-1 and cps2-1 [4]; plaque assay) | rescue of plaque formation of cps1-1 and cps2-1 (cps1-1 and cps2-1 [4]; pyrimidine concentrations up to 200 μM) | effect on RH parasite plaques (RH parasite) |
| --- | --- | --- | --- | --- | --- | --- | --- | --- | --- | --- | --- | --- | --- | --- |
| Nc1nc(O)c2ncn(COC(CO)CO)c2n1 [ganciclovir] | 0.5 μm | 0.5 µM | loss of sensitivity |  |  |  |  |  |  |  |  |  |  |  |
| O=c1cc[nH]c(=O)[nH]1 [uracil] |  |  |  | incorporated into wild-type T. gondii | not labeled | 0.00032 pmoles pyrimidine per tachyzoite per 4 hours | completely rescued | plaques well | robust | do not even form plaques | > 500 µM | significant growth rescue | completely rescued | no effect |
